Results reported in patent US5399565A, “Pyrazolidinone CCK and gastrin antagonists and pharmaceutical formulations therof” (priority 1993, dated 1995).
Like-named read-outs stand apart in the source and are kept apart here.

Legend:
[1] = pKa by titration; conditions: first or only value; for pKa: 2:1 dmf:h2o, titration pKa
[2] = target: T1, peripheral type CCK receptors in rat pancreas (Rattus norvegicus, UniProt P30551); assay: Binding to peripheral type CCK receptors in rat pancreas (3H-L-364,718); conditions: for IC50: rat pancreas; for inhibition at 10 µM: read-out: Pancreas Percent Inhibition
T1 construct: Pancreas was obtained from male Sprague-Dawley rats; from tissue; host or cells: pancreas membranes of male Sprague-Dawley rats
T1 sequence (P30551 1-444): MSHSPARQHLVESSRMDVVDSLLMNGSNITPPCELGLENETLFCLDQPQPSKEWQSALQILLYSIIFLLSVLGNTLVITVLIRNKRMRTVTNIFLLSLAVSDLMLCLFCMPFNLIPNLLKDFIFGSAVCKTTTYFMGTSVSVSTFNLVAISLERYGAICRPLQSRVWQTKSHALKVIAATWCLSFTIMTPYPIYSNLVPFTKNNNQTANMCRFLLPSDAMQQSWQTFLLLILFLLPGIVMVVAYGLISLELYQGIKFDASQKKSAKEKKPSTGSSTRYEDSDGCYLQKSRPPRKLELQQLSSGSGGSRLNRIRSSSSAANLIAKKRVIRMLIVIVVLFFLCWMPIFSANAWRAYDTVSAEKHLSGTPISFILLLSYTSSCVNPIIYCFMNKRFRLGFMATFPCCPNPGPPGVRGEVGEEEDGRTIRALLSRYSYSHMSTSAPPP
Summary of the method: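 Washed pancreatic membranes from male Sprague-Dawley rats (150-200 g) incubated 1 h at room temperature with 0.4-0.6 nM ³H-L-364,718 in 50 mM Tris pH 7.4, 5 mM MgCl2, bacitracin, 5 mM DTT. Bound radioactivity counted after filtration; nonspecific binding defined with 100 nM L-364,718; IC50 determined.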

[3] = target: T2, brain CCK receptor (Mus musculus, UniProt P56481); assay: CCK receptor binding, mouse brain membranes (125I-CCK-8 sulfate)
T2 construct: from tissue; host or cells: forebrain membranes of male CF-1 mice
T2 sequence (P56481 1-453): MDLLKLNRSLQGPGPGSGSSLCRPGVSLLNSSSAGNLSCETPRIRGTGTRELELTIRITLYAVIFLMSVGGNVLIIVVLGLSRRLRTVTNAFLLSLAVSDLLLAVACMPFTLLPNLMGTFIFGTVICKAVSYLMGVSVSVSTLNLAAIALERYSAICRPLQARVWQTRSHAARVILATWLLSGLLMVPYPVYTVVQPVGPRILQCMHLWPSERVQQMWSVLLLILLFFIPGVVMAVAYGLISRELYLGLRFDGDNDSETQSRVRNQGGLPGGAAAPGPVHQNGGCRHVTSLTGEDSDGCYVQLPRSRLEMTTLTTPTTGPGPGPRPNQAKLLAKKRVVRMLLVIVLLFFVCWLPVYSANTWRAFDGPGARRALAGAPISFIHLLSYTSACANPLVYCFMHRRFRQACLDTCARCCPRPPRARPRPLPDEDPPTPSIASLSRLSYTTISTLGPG

[4] = target: T3, gastrin receptor (Cavia porcellus, UniProt H0VZC5); assay: Gastrin binding to guinea pig stomach mucosal membranes (125I-gastrin I)
T3 construct: Guinea pig stomach fundus was obtained from male Hartley guinea pigs; from tissue; host or cells: stomach fundus mucosal membranes of male Hartley guinea pigs
T3 sequence (H0VZC5 1-426): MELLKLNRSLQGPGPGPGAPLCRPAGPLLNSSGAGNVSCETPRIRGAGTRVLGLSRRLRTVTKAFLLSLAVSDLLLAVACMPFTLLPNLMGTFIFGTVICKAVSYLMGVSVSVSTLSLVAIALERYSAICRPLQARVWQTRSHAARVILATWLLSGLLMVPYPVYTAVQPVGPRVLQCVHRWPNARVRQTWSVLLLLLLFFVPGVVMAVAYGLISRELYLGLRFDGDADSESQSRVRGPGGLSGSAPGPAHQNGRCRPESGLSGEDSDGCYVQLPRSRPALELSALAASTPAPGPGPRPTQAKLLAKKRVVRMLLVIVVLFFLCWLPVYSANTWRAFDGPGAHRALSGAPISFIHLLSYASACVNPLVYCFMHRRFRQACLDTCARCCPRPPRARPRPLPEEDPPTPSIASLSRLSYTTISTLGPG
Method: The method used for gastrin binding to guinea pig stomach mucosal membranes was similar to that described by Takeuchi, Speir and Johnson (Am. J. Physiol. 237(3): E284-E294, 1979). Guinea pig stomach fundus was obtained from male Hartley guinea pigs, 300-350 g, and the mucosa was scraped off with a glass slide. The mucosa was homogenized in 50 mM Tris buffer, pH 7.4, containing 1 mM phenylmethanesulfonyl fluoride using a Dounce glass homogenizer, and the suspension was centrifuged at 40,000 g for 10 min. The resulting pellet was resuspended and centrifuged once more, the final pellet was then suspended in 100 ml assay buffer per 1 guinea pig stomach to give a protein concentration of 200-300 μg/200 μl. The assay buffer consisted of 50 mM Tris buffer, pH 7.4, 5 mM MgCl2, 0.14 mg/ml bacitracin, and 1 μg/ml each of leupeptin, chymostatin, aprotinin and pepstatin. Reagent volumes for the assay were the same as those used for CCK binding to brain membranes. The radioactive ligand was 20 pM ^125 I-gastrin I, from DuPont NEN (NEX-176). The samples were incubated 3 hours at room temperature and filtered and counted as described for CCK binding to brain membranes. Compound samples were prepared and IC-50 values were determined as described for the CCK-brain receptor binding. Non-specific binding was determined using 100 nM gastrin I (human synthetic from Sigma Chemical Co.).

[5] = mouse brain membranes, read-out: Brain IC50
[6] = guinea pig stomach mucosal membranes, read-out: Gastrin IC50

IC50 [3, 5] [µM] | IC50 [4, 6] [µM] | inhibition at 10 µM [2] [%] | Compound | further results
 |  |  | C[C@@H](OC(=O)N1NC(=O)[C@@H](c2ccccc2)[C@@H]1c1ccccc1)c1ccccc1 (single isomer, unassigned) [Example 139B] | titration pKa ([1]; 2:1 DMF:H2O, listed as Diastereomer B): 8.6
 |  |  | O=C1NN(C(=S)Nc2ccc3ccccc3c2)[C@@H](c2ccccc2)[C@@H]1c1ccccc1 (relative stereo) [Example 136, 1-[(2-Naphthyl)aminothiocarbonyl]-4,5-diphenyl-3-pyrazolidinone] | IC50 [2]: 0.16 µM; pKa [1]: 5.8
0.022 | 0.15 |  | O=C1NN(C(=O)Nc2ccc(Cl)c(C(F)(F)F)c2)[C@@H](c2ccccc2)[C@@H]1c1ccccc1 (relative stereo) [Example 1, 1-[(4-Chloro-3-trifluoromethylphenyl)aminocarbonyl]-4,5-diphenyl-3-pyrazolidinone] | IC50 [2]: 0.19 µM
0.044 | 0.42 | 62 | O=C1NN(C(=O)Nc2ccc(C(F)(F)F)cc2)[C@@H](c2ccccc2)[C@@H]1c1ccccc1 (relative stereo) [Example 16] | 
0.015 | 0.22 |  | O=C1NN(C(=O)Nc2ccc(Br)cc2)C(c2ccccc2)C1c1ccccc1Cl (stereo not shown) [Example 122] | IC50 [2]: 8.6 µM
0.031 | 0.35 | 49 | CC(C)(C)c1ccc(NC(=O)N2NC(=O)[C@@H](c3ccccc3)[C@@H]2c2ccccc2)cc1 (relative stereo) [Example 30] | 
0.19 | 0.87 | 78 | O=C1NN(C(=O)NCCc2ccccc2Cl)[C@@H](c2ccccc2)[C@@H]1c1ccccc1 (relative stereo) [Example 106] | 
0.011 | 0.21 | 59 | O=C1NN(C(=O)Nc2ccc(Br)cc2)C(c2ccccc2)C1c1cccc(Cl)c1 (stereo not shown) [Example 126] | 
0.042 | 0.21 |  | O=C1NN(C(=O)Nc2ccc(Cl)c(Cl)c2)[C@H](c2ccccc2)[C@H]1c1ccccc1 (relative stereo) [Example 46] | IC50 [2]: 1.2 µM
0.072 | 1.4 | 42 | COc1cccc(C2C(c3ccccc3)C(=O)NN2C(=O)Nc2ccc(C(F)(F)F)cc2)c1 (stereo not shown) [Example 112] | 
0.043 | 0.25 | 40 | O=C1NN(C(=O)Nc2ccc3c(c2)CCC3)[C@H](c2ccccc2)[C@H]1c1ccccc1 (relative stereo) [Example 49] | 
0.068 | 0.69 | 23 | COc1cccc(C2C(=O)NN(C(=O)Nc3ccc(Br)cc3)C2c2ccccc2)c1 (stereo not shown) [Example 123] | 
0.016 | 0.12 | 87 | O=C1NN(C(=O)Nc2ccc(Cl)c(C(F)(F)F)c2)C(c2ccccc2Cl)C1c1ccccc1 (stereo not shown) [Example 120] | 
 |  |  | C[C@@H](OC(=O)N1NC(=O)[C@@H](c2ccccc2)[C@@H]1c1ccccc1)c1ccccc1 (single isomer, unassigned) [Example 139A] | pKa [1]: 8.7
0.013 | 0.081 | 87 | O=C1NN(C(=O)Nc2ccc3c(c2)CCCC3)[C@H](c2ccccc2)[C@H]1c1ccccc1 (relative stereo) [Example 50] | 
0.36 | 1.5 | 55 | O=C1NN(C(=O)Nc2ccc(Br)cc2)[C@@H](c2ccccc2Cl)[C@H]1c1ccccc1Cl (relative stereo) [Example 133A] | 
0.4 | 1 | 64 | O=C1NN(C(=O)Nc2ccc(Br)cc2)[C@@H](c2cccc(Cl)c2Cl)[C@H]1c1ccccc1 (relative stereo) [Example 117] | 

Compound | IC50 [3, 5] [µM] | IC50 [4, 6] [µM] | inhibition at 10 µM [2] [%] | further results
N#Cc1cccc(C2C(c3ccccc3)C(=O)NN2C(=O)Nc2ccc(C(F)(F)F)cc2)c1 (stereo not shown) [Example 111] |  |  | 35 | IC50 ([3]; Brain IC50, mouse brain membranes): 0.02 µM; IC50 [4]: 0.61 µM
